In patent publication US9682983B2, “BMP inhibitors and methods of use thereof” (THE BRIGHAM AND WOMEN'S HOSPITAL, INC., priority 2013, dated 2017):
Read-outs that look alike come from different tables or passages of the source.

Molecular target: human ALK2 (Homo sapiens (Human), UniProt Q04771)
Assay: LANCE Ultra ULight enzymatic assay (FOP Enzymatic Assay), ALK2
Format: biochemical
[1] = read-out: ALK2 IC50 (nM) at 10 μM ATP, 10 μM ATP

Chain of human ALK2 (Q04771 21-509): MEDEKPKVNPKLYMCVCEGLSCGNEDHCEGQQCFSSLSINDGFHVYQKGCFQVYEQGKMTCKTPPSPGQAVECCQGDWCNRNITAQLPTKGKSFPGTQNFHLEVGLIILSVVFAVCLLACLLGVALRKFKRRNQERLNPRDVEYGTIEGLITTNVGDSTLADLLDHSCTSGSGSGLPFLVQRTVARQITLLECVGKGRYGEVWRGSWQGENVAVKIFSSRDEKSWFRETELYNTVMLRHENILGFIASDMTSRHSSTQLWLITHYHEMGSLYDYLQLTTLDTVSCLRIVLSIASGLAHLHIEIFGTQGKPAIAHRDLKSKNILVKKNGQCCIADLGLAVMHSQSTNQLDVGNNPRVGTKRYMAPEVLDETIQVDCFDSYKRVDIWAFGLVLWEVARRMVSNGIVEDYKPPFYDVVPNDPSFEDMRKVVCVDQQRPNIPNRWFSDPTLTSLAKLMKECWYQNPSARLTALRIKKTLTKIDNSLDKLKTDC

Compound	IC50 [1]	IC50 (10 μM ATP)	further results
[2H]c1ccc2c(-c3cnn4cc(-c5ccc(N6[C@H](C)CNC[C@@H]6C)cc5)cnc34)cccc2n1 [Compound 53, 5-(6-(4-((2R,6S)-2,6-dimethylpiperazin-1-yl)phenyl)pyrazolo[1,5-a]pyrimidin-3-yl)2-^2H-quinoline]	–	–	IC50: 8 nM
Cc1ccc2c(-c3cnn4cc(-c5ccc(N6[C@H](C)CNC[C@@H]6C)cc5)cnc34)cccc2n1 [Compound 54, 5-(6-(4-((2R,6S)-2,6-dimethylpiperazin-1-yl)phenyl)pyrazolo[1,5-a]pyrimidin-3-yl)-2-methylquinoline]	32 nM	–	–
Cc1ccc2c(-c3cnn4cc(-c5ccc(OCCN6CCOCC6)cn5)cnc34)cccc2n1 [Compound 56, 4-(2-((6-(3-(2-methylquinolin-5-yl)pyrazolo[1,5-a]pyrimidin-6-yl)pyridin-3-yl)oxy)ethyl)morpholine]	562 nM	–	–
[2H]c1ccc2c(-c3cnn4cc(-c5ccc(OC(C)(C)CN6CCCCC6)cn5)cnc34)cccc2n1 [Compound 57, 5-(6-(5-((2-methyl-1-(piperidin-1-yl)propan-2-yl)oxy)pyridin-2-yl)pyrazolo[1,5-a]pyrimidin-3-yl)-2-^2H-quinoline]	–	28 nM	–
Cc1ccc2c(-c3cnn4cc(-c5ccc(OC(C)(C)CN6CCCCC6)cn5)cnc34)cccc2n1 [Compound 58, 2-methyl-5-(6-(5-((2-methyl-1-(piperidin-1-yl)propan-2-yl)oxy)pyridin-2-yl)pyrazolo[1,5-a]pyrimidin-3-yl)quinoline]	107 nM	–	–
[2H]c1ccc2c(-c3cnn4cc(-c5ccc(OC6CCN(C)CC6)cn5)cnc34)cccc2n1 [Compound 59, 5-(6-(5-((1-methylpiperidin-4-yl)oxy)pyridin-2-yl)pyrazolo[1,5-a]pyrimidin-3-yl)-2-^2H-quinoline]	–	43 nM	–
Cc1ccc2c(-c3cnn4cc(-c5ccc(OC6CCN(C)CC6)cn5)cnc34)cccc2n1 [Compound 60, 2-methyl-5-(6-(5-((1-methylpiperidin-4-yl)oxy)pyridin-2-yl)pyrazolo[1,5-a]pyrimidin-3-yl)quinoline]	155 nM	–	–
[2H]c1ccc2c(-c3cnn4cc(-c5ccc(OC6CCNCC6)cn5)cnc34)cccc2n1 [Compound 61, 5-(6-(5-(piperidin-4-yloxy)pyridin-2-yl)pyrazolo[1,5-a]pyrimidin-3-yl)-2-^2H-quinoline]	–	41 nM	–
Cc1ccc2c(-c3cnn4cc(-c5ccc(OC6CCNCC6)cn5)cnc34)cccc2n1 [Compound 62, 2-methyl-5-(6-(5-(piperidin-4-yloxy)pyridin-2-yl)pyrazolo[1,5-a]pyrimidin-3-yl)quinoline]	180 nM	–	–
[2H]c1ccc2c(-c3cnn4cc(-c5ccc(O[C@@H]6CCNC6)cn5)cnc34)cccc2n1 [Compound 63, (R)-5-(6-(5-(pyrrolidin-3-yloxy)pyridin-2-yl)pyrazolo[1,5-a]pyrimidin-3-yl)-2-^2H-quinoline]	–	45 nM	–
Cc1ccc2c(-c3cnn4cc(-c5ccc(O[C@@H]6CCNC6)cn5)cnc34)cccc2n1 [Compound 64, (R)-2-methyl-5-(6-(5-(pyrrolidin-3-yloxy)pyridin-2-yl)pyrazolo[1,5-a]pyrimidin-3-yl)quinoline]	276 nM	–	–
[2H]c1ccc2c(-c3cnn4cc(-c5ccc(O[C@H]6CCNC6)cn5)cnc34)cccc2n1 [Compound 65, (S)-5-(6-(5-(pyrrolidin-3-yloxy)pyridin-2-yl)pyrazolo[1,5-a]pyrimidin-3-yl)-2-^2H-quinoline]	–	34 nM	–
Cc1ccc2c(-c3cnn4cc(-c5ccc(O[C@H]6CCNC6)cn5)cnc34)cccc2n1 [Compound 66, (S)-2-methyl-5-(6-(5-(pyrrolidin-3-yloxy)pyridin-2-yl)pyrazolo[1,5-a]pyrimidin-3-yl)quinoline]	102 nM	–	–
COc1ccc2c(-c3cnn4cc(-c5ccc(N6[C@H](C)CNC[C@@H]6C)cc5)cnc34)cccc2n1 [Compound 67, 5-(6-(4-((2S,6R)-2,6-dimethylpiperazin-1-yl)phenyl)pyrazolo[1,5-a]pyrimidin-3-yl)-2-methoxyquinoline]	157 nM	–	–
